Data on one molecule can be found in patent US9040713B2, “Methods of managing blood sugar levels and compositions related thereto” (EMORY UNIVERSITY, priority 2010, dated 2015).

Test [1] has as its system EGFR, ErbB2, EphAl, FGFR1, VEGFR1, cMet, TrkB, PDGFRa, RET. Description: RTK kinase profile screen assay. The class given is biochemical.
In another test the target is T1, TrkB (Homo sapiens, UniProt Q16620).
T1 construct: expressed in transfected cells; host or cells: HEK293
Description: TrkB phosphorylation in transfected HEK293 cells (Western blot). Format: cell-based. To be noted: 5 μM. For orientation: Immunoblotting shows a protein as a band on a membrane.

The target in another test is T2, IR-EGFR (Homo sapiens, UniProt P00533+P06213).
T2 construct: the cDNA encoding extracellular IR was fused to intracellular IGFR or EGFR; expressed in transfected cells; host or cells: CHO
Briefly: His-tagged chimaeric receptor phosphorylation in CHO cells. Format: cell-based. To be noted: 5 μM, 30 min. The procedure:
(A) Chemical structure of 4524-E7. (B) Effect of 4524-E7 and other 1,4-naphthoquinone derivatives on IR phosphorylation in CHO-IR cells. CHO-IR cells were cultured in 96-well plates and treated with 5 μM compounds for 15 min at 37 C. Cells were lysed, and IR phosphorylations were tested by ELISA. The IR phosphorylation activities of the tested compounds were expressed as a percentage of the vehicle. (C) 4524-E7 and 1,4-naphthoquinone derivates activate IR and its downstream signaling in CHO-IR cells. […] The cell lysates were analyzed by immunoblotting with various indicated antibodies. The phosphorylated IR was immunoprecipitated using PY20 and analyzed by immunoblotting with anti-IR13 antibody. […] The phosphorylation of each receptor was determined by Western blot using specific antibodies as indicated. (E) 4524-E7 activates IR through its ICD. Upper panel: Diagram of chimaeric receptors. Lower panel: His-tagged wild-type IR, IGFR-IR, IR-IGFR, and IR-EGFR constructs were transfected into CHO cells followed vehicle or 5 μM 4524-E7 treatment for 30 min. Then the cells were lysated and the transfected receptor fused to His tag were pulled down with Ni+ beads, followed by western blot against anti-p-Tyr and anti-His. The cell lysates were tested with anti-p-Akt and anti-Akt.
The cDNA encoding wild type IR was introduced into the pcDNA3.1/V5-His-TOPO vector. […]

For a further test, the target named is T3, GST-EGFRTK (Homo sapiens, UniProt P00533).
T3 construct: histone phosphorylation by recombinant IGFR or EGFR tyrosine kinase
Briefly: In vitro kinase assay (histone H2B phosphorylation). To be noted: different concentrations of 4524-E7. Format: biochemical. As to the method: (§1) Parental CHO cells were used as a negative control (Bottom panel). The fluorescence-labeled cells were analyzed on flow cytometry. (B) 4524-E7 protects IRTK from proteolysis. GST-IRTK was subjected to limited trypsin or chymotrypsin digestion in the presence of 4524-E7 (50 μM), ATPyS (5 μM) or both at 37° C. for 5 min. The reaction mixture was resolved by SDS-PAGE, followed by silver staining Cleaved fragments were asterisked. (C) 4524-E7 increases IRTK activity in vitro. Recombinant GST-IRTK, GST-IGFRTK, and GST-EGFRTK were incubated with different concentrations of 4524-E7 or 10 μM 2—NH2-NQ and the kinase activity was examined by monitoring the phosphorylation of histone H2B. (E) In vitro kinase activity of various IRTK/IGF-1R kinase hybrids. The GFP-tagged kinases were expressed in HEK293, immunoprecipitated and incubated with different concentrations of 4524-E7 as indicated. […] Expressions of the kinases were also verified (lower panel).
(§2) To evaluate if 4524-E7 directly binds to the IR kinase domain, a partial proteolysis assay was performed with recombinant IRTK domain using trypsin or chymotrypsin, which was used before to characterize the interaction between IR and its small molecular ligand DAQ B1. Recombinant GST-tagged IRTK with either DMSO, 50 μM 4524-E7 or ATP-γ-S, were incubated and followed by limited trypsin or chymotrypsin digestion. […]

In a further test the target is T4, GST-IGFRTK (Homo sapiens, UniProt P08069).
T4 construct: histone phosphorylation by recombinant IGFR or EGFR tyrosine kinase
Described as above. The class given is biochemical. The settings on record: different concentrations of 4524-E7. The procedure: as §1, §2

T4 sequence (P08069 999-1274 limits assumed): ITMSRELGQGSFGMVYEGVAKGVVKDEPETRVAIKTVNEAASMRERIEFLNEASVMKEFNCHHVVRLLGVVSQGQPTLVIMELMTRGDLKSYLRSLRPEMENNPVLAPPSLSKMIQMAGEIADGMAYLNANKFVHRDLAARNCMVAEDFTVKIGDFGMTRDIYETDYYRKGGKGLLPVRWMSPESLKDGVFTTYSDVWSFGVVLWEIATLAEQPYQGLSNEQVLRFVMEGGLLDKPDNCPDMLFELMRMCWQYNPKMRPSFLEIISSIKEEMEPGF
T2 sequence (P00533 669-1210 limits assumed, one chain of several): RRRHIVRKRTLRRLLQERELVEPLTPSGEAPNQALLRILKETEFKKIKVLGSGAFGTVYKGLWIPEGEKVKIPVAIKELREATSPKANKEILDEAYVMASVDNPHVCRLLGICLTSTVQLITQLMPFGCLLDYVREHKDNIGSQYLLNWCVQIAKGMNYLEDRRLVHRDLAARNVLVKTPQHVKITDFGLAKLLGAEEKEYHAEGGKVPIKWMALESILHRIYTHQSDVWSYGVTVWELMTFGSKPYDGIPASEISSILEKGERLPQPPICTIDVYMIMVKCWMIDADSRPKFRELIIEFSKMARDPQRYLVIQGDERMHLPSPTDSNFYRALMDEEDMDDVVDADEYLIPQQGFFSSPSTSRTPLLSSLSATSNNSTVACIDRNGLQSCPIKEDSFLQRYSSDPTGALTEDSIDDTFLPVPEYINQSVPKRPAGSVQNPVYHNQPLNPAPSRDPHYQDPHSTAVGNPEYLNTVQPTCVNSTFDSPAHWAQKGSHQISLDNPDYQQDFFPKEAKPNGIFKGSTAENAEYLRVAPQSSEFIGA
T3 sequence (P00533 712-979 limits assumed): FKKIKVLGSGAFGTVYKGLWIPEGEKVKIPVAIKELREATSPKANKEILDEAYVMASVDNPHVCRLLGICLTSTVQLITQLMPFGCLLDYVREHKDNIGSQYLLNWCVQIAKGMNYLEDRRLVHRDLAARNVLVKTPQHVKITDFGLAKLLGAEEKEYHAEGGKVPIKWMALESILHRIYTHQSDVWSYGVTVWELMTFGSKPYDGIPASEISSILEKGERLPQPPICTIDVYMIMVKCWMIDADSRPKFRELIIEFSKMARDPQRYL
T1 sequence (Q16620 32-822, species assumed): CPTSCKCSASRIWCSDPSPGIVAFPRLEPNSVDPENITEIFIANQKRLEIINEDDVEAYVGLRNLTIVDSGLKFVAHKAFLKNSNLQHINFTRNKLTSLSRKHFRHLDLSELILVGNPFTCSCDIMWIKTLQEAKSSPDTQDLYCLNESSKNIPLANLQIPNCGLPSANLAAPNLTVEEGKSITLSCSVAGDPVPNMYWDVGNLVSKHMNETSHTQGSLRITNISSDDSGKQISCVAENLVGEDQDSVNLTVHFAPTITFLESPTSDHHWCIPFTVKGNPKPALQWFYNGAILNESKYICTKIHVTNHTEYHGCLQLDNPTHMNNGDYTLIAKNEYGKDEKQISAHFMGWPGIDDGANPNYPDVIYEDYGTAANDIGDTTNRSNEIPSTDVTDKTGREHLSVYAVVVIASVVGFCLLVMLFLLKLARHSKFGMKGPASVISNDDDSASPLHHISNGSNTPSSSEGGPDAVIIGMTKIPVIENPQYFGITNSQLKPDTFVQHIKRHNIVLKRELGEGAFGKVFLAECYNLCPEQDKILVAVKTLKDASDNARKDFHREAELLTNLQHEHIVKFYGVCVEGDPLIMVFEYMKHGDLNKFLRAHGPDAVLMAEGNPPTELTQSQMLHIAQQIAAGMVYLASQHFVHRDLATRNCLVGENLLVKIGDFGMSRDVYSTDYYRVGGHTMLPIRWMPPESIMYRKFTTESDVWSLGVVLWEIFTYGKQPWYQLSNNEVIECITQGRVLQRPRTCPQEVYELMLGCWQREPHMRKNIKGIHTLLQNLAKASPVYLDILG

Turning to `O=C1c2ccccc2C(=O)C2SC(Nc3ccc(Cl)cc3)=NC12` (centres unmarked) [4524-E7, 2-((4-chlorophenyl)amino)naphtho[2,3-d]thiazole-4,9(3aH,9aH)-dione], the “activation of tested RTKs” value in test [1] is given as “none of the tested RTKs”. The TrkB activation entry on TrkB is “not any other RTKs”. Besides, on IR-EGFR, the “tyrosine phosphorylation of chimaeric receptor” value is “not phosphorylated”. The “EGFR tyrosine kinase activity (histone phosphorylation)” value on GST-EGFRTK is “no effect”. Moreover, the “IGFR tyrosine kinase activity (histone phosphorylation)” value on GST-IGFRTK is listed as “no effect”.
